Assay results as given in patent US20240382448A1, “METHODS FOR TREATING CORONAVIRUS INFECTION” (priority 2021, published 2024).
Read-outs that look alike come from different tables or passages of the source.

Legend:
[1] = test system: Calu3 (ATCC, HTB-55) cells; conditions: average of three replicates, (sample well/aggregated DMSOavg)*100
[2] = test system: SARS-CoV-2 (isolate USA WA1/2020); assay type: cell-based; conditions: Calu3 cells, 2 h pretreatment, MOI=0.5, 48 h post-infection, compared to DMSO control

Row | SMILES | Viability ([1]; 0.02 μM) | Viability ([1]; 0.07 μM) | Viability ([1]; 0.21 μM) | Viability ([1]; 0.62 μM) | Viability ([1]; 1.85 μM) | Viability ([1]; 5.56 μM) | Viability ([1]; 16.67 μM) | Viability ([1]; 50.00 μM) | % Infection ([2]; 0.02 μM) | % Infection ([2]; 0.07 μM) | % Infection ([2]; 0.21 μM) | % Infection ([2]; 0.62 μM) | % Infection ([2]; 1.85 μM) | % Infection ([2]; 5.56 μM) | % Infection ([2]; 16.67 μM) | % Infection ([2]; 50.00 μM)
1 | C[C@H]1[C@H](OC(=O)CCC(=O)O)O[C@@H]2O[C@@]3(C)CC[C@H]4[C@H](C)CC[C@@H]1[C@@]24OO3 [Artesunate] | 95.4 | 102.6 | 100.5 | 97.7 | 95.1 | 92.9 | 91.1 | 78.3 | 110.9% | 90.0% | 80.7% | 44.7% | 18.0% | 14.7% | 16.1% | 4.7%
2 | C[C@H]1[C@@H](O)O[C@@H]2O[C@@]3(C)CC[C@H]4[C@H](C)CC[C@@H]1[C@@]24OO3 [Dihydroartemisinin] | – | – | – | – | – | – | – | – | 76.6% | 103.6% | 73.6% | 23.0% | 13.5% | 7.0% | 12.8% | 2.0%
3 | COc1cc(-c2oc3cc(O)cc(O)c3c(=O)c2O)ccc1O [Isorhamnetin] | 99.6 | 99.6 | 99.4 | 98.8 | 101.0 | 99.8 | 83.7 | 73.0 | 93.6% | 79.5% | 103.8% | 60.4% | 83.8% | 5.3% | 7.9% | –
